According to publication PMC5938755 (Biochemistry, 2018):

Biological target: phosphotriesterase from Sphingobium sp. TCM1 (Sb-PTE) (Sphingobium sp. TCM1, UniProt A0A077JBW9)
Test: steady-state kinetics, release of p-nitrophenol
Assay type: biochemical
Conditions: 50 mM HEPES/K+, pH 8.5, 30 °C; only aryl ester hydrolysis followed

Row | Structure (SMILES) | Km
1 | COP(=O)(OC)Oc1ccc([N+](=O)[O-])cc1 [compound 3, dimethyl p-nitrophenyl phosphate] | 760 ± 50 µM
2 | CCOP(=O)(OCC)Oc1ccc([N+](=O)[O-])cc1 [compound 11, paraoxon] | 83 ± 9 µM
